The values below come from ChEMBL document CHEMBL4033756, “Identification of Better Pharmacokinetic Benzothiazinone Derivatives as New Antitubercular Agents” (ACS Med Chem Lett, 2017).

For experiment [1], the system named is Mycobacterium tuberculosis. The experiment can be described thus: Antitubercular activity against multidrug-resistant Mycobacterium tuberculosis 12525 after 7 days by microplate alamar blue assay. The format is functional. The settings on record: Mycobacterium tuberculosis, 12525, 168 h.
For experiment [2], the system named is Mycobacterium tuberculosis. The experiment is described as follows: Antitubercular activity against multidrug-resistant Mycobacterium tuberculosis 14231 after 7 days by microplate alamar blue assay. As to conditions: Mycobacterium tuberculosis, 14231, 168 h. The format is functional.

Each structure is given as a SMILES string. Values after ≈ are worked out from the molar mass of the structure shown.

For `O=c1nc(N2CCC3(CCN(Cc4ccc(F)cc4)C3)CC2)sc2c([N+](=O)[O-])cc(C(F)(F)F)cc12`, the MIC90 in experiment [1] was less than 0.035 µM; in experiment [2] it was 0.034 µM (≈ 0.0178 µg/mL).
Consider `O=c1nc(N2CCC3(CCN(Cc4cccc(F)c4)CC3)CC2)sc2c([N+](=O)[O-])cc(C(F)(F)F)cc12`, for which the MIC90 in experiment [1] and in experiment [2] was less than 0.035 µM in each case.
On to `O=c1nc(N2CCC3(CCN(Cc4ccc(Br)cc4)CC3)CC2)sc2c([N+](=O)[O-])cc(C(F)(F)F)cc12`, for which the MIC90 amounted to 0.092 µM (≈ 0.055 µg/mL) in experiment [1] and 0.086 µM (≈ 0.0514 µg/mL) in experiment [2].
The corresponding values for `COc1ccc(CN2CCC3(CCN(c4nc(=O)c5cc(C(F)(F)F)cc([N+](=O)[O-])c5s4)CC3)C2)cc1` are 0.056 µM (≈ 0.0299 µg/mL) and 0.095 µM (≈ 0.0508 µg/mL).
The corresponding values for `O=c1nc(N2CCC3(CCN(Cc4cc(F)cc(F)c4)CC3)CC2)sc2c([N+](=O)[O-])cc(C(F)(F)F)cc12` are less than 0.035 µM and less than 0.035 µM.
Turning to `O=c1nc(N2CCC3(CCN(Cc4ccc(C(F)(F)F)cc4)CC3)CC2)sc2c([N+](=O)[O-])cc(C(F)(F)F)cc12`, the MIC90 in experiment [1] and in experiment [2] was less than 0.035 µM each time.
Consider `COc1ccc(CN2CC3(CCN(c4nc(=O)c5cc(C(F)(F)F)cc([N+](=O)[O-])c5s4)CC3)C2)cc1`, for which the MIC90 amounted to 0.119 µM (≈ 0.0619 µg/mL) in experiment [1] and 0.123 µM (≈ 0.064 µg/mL) in experiment [2].
For `O=c1nc(N2CCC3(CCN(Cc4ccccc4)C3)CC2)sc2c([N+](=O)[O-])cc(C(F)(F)F)cc12`, the MIC90 in experiment [1] and in experiment [2] was less than 0.035 µM in each case.
Take `CCOC(=O)CN1CCC2(CCN(c3nc(=O)c4cc(C(F)(F)F)cc([N+](=O)[O-])c4s3)CC2)C1`: the MIC90 in experiment [1] turned out to be 0.08 µM (≈ 0.04 µg/mL); in experiment [2] it was 0.06 µM (≈ 0.03 µg/mL).
As to `NNC(=O)c1ccncc1` [ISONIAZID], the figures for the MIC90 in experiment [1] and in experiment [2] were more than 292 µM and 34.5 µM (≈ 4.73 µg/mL), respectively.
As for `O=c1nc(N2CCN(CC3CCCCC3)CC2)sc2c([N+](=O)[O-])cc(C(F)(F)F)cc12` [MACOZINONE], the MIC90 in experiment [1] and in experiment [2] was less than 0.035 µM each time.
Take `CO[C@H]1/C=C/O[C@@]2(C)Oc3c(C)c(O)c4c(O)c(c(/C=N/N5CCN(C)CC5)c(O)c4c3C2=O)NC(=O)/C(C)=C\C=C\[C@H](C)[C@H](O)[C@@H](C)[C@@H](O)[C@@H](C)[C@H](OC(C)=O)[C@@H]1C` [RIFAMPIN]: the MIC90 was 27.2 µM (≈ 22.4 µg/mL) in experiment [1] and more than 48.6 µM in experiment [2].
